“And” between values parts separate entries of the source, which are not always exact repeats. Equal entries are not always repeated. Toxic doses and inconclusive results are not listed. How the source made its calls: active means survival T/C of 150% or more; inactive means T/C below 125% in these data.
Test system: BDF1 mice, B16 melanoma ip, median survival T/C
Test: NCI In Vivo Anticancer Drug Screen. Data for tumor model B16 Melanoma (intraperitoneal) in B6D2F1 (BDF1) mice
Details: endpoint: median survival time, higher = longer survival
Procedure, shortened: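 Tumor-bearing mice received test compound or vehicle. Survival or tumor size was then measured in both groups. The treated-group figure was divided by the control-group figure.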

[1] = dose: 100.0 mg/kg/injection, schedule: Q01DX009 (ip), vehicle: saline with Tween-80
[2] = dose: 200.0 mg/kg/injection, schedule: Q01DX009 (ip), vehicle: saline with Tween-80
[3] = dose: 400.0 mg/kg/injection, schedule: Q01DX009 (ip), vehicle: saline with Tween-80
[4] = dose: 6.25 mg/kg/injection, schedule: Q01DX009 (ip), vehicle: saline with Tween-80
[5] = dose: 12.5 mg/kg/injection, schedule: Q01DX009 (ip), vehicle: saline with Tween-80
[6] = dose: 25.0 mg/kg/injection, schedule: Q01DX009 (ip), vehicle: saline with Tween-80
[7] = dose: 50.0 mg/kg/injection, schedule: Q01DX009 (ip), vehicle: saline with Tween-80
[8] = dose: 25.0 mg/kg/injection, schedule: Q01DX009 (ip), vehicle: Klucel (hydroxypropylcellulose) (HPC)
[9] = dose: 50.0 mg/kg/injection, schedule: Q01DX009 (ip), vehicle: Klucel (hydroxypropylcellulose) (HPC)
[10] = dose: 100.0 mg/kg/injection, schedule: Q01DX009 (ip), vehicle: Klucel (hydroxypropylcellulose) (HPC)
[11] = dose: 200.0 mg/kg/injection, schedule: Q01DX009 (ip), vehicle: Klucel (hydroxypropylcellulose) (HPC)
[12] = dose: 0.25 mg/kg/injection, schedule: Q01DX009 (ip), vehicle: saline
[13] = dose: 0.5 mg/kg/injection, schedule: Q01DX009 (ip), vehicle: saline

Measured: T/C

Nc1cc2[nH]cnc2c(=O)[nH]1
inactive: dose: 12.5 mg/kg/injection, schedule: Q01DX009 (ip), vehicle: suspension in saline 88 % of control | dose: 18.8 mg/kg/injection, schedule: Q01DX009 (ip), vehicle: saline 102 % of control | dose: 25.0 mg/kg/injection, schedule: Q01DX009 (ip), vehicle: saline 92 % of control | dose: 25.0 mg/kg/injection, schedule: Q01DX009 (ip), vehicle: suspension in saline 95 % of control | dose: 37.5 mg/kg/injection, schedule: Q01DX009 (ip), vehicle: saline 102 % of control | dose: 50.0 mg/kg/injection, schedule: Q01DX009 (ip), vehicle: suspension in saline 94 % of control | dose: 75.0 mg/kg/injection, schedule: Q01DX009 (ip), vehicle: saline 107 % of control | dose: 100.0 mg/kg/injection, schedule: Q01DX009 (ip), vehicle: suspension in saline 95 % of control | dose: 150.0 mg/kg/injection, schedule: Q01DX009 (ip), vehicle: saline 107 % of control | dose: 200.0 mg/kg/injection, schedule: Q01DX009 (ip), vehicle: suspension in saline 106 % of control

Cc1ccc(C(=O)CCCCl)cc1C
inactive: [1] 100 % of control | [2] 106 % of control | [3] 97 % of control

O=C(CCc1ccc(O)cc1)c1c(O)cc(O)cc1O
inactive: dose: 50.0 mg/kg/injection, schedule: Q01DX009 (ip), vehicle: saline + alcohol 110 % of control | dose: 100.0 mg/kg/injection, schedule: Q01DX009 (ip), vehicle: saline + alcohol 102 % of control | dose: 400.0 mg/kg/injection, schedule: Q01DX009 (ip), vehicle: saline + alcohol 107 % of control

CCOC(=O)/N=[N+](\[O-])c1ccccc1
inactive: dose: 3.12 mg/kg/injection, schedule: Q01DX009 (ip), vehicle: saline with Tween-80 97 % of control | [4] 100 % of control | [5] 105 % of control | [6] 104 % of control

Nc1ccc(S(=O)(=O)N/N=C/c2ccccc2Cl)cc1
inactive: [5] 107 % of control | [6] 102 % of control | [7] 107 % of control

Cc1cc(NC(=O)CCc2ccc(N3C(N)=NC(N)=NC3(C)C)cc2)ccc1S(=O)(=O)F
inactive: dose: 50.0 mg/kg/injection, schedule: Q01DX009 (ip), vehicle: saline sonified 118 % of control | dose: 100.0 mg/kg/injection, schedule: Q01DX009 (ip), vehicle: saline sonified 94 % of control | dose: 200.0 mg/kg/injection, schedule: Q01DX009 (ip), vehicle: saline sonified 100 % of control

COc1ccc(C(Nc2ccccc2)C(=O)c2ccccc2)cc1 (stereo not given)
inactive: dose: 3.12 mg/kg/injection, schedule: Q01DX009 (ip), vehicle: Klucel (hydroxypropylcellulose) (HPC) 90 % of control | dose: 6.25 mg/kg/injection, schedule: Q01DX009 (ip), vehicle: Klucel (hydroxypropylcellulose) (HPC) 106 % of control | dose: 12.5 mg/kg/injection, schedule: Q01DX009 (ip), vehicle: Klucel (hydroxypropylcellulose) (HPC) 89 % of control | [8] 89 % of control and 90 % of control

CC(C)(C)OC(=O)NC(COCc1ccccc1)C(=O)O (stereo not given)
inactive: [7] 90 % of control | [1] 90 % of control

C=CCOCC(O)CN1CCC(C)CC1 (stereo not given)
inactive: dose: 25.0 mg/kg/injection, schedule: Q04DX003 (ip), vehicle: Klucel (hydroxypropylcellulose) (HPC) 88 % of control | dose: 50.0 mg/kg/injection, schedule: Q04DX003 (ip), vehicle: Klucel (hydroxypropylcellulose) (HPC) 101 % of control | dose: 100.0 mg/kg/injection, schedule: Q04DX003 (ip), vehicle: Klucel (hydroxypropylcellulose) (HPC) 107 % of control

CCc1cc(C)cc(OC(=O)Nc2ccc(Cl)c(Cl)c2)c1
inactive: [1] 101 % of control | [2] 92 % of control | [3] 87 % of control

CC(=O)NS(=O)(=O)c1ccc(NC(=O)c2ccccc2C(=O)O)cc1
inactive: [9] 98 % of control | [10] 96 % of control | [11] 93 % of control

CCCCOC(=O)C(C)OC(=O)CCC (stereo not given)
inactive: [8] 112 % of control | [9] 108 % of control | [10] 104 % of control | [11] 122 % of control

CC1CN1c1nc(N2CC2C)nc(N2CC2C)n1 (stereo not given)
inactive: [12] 105 % of control | [13] 97 % of control | dose: 1.0 mg/kg/injection, schedule: Q01DX009 (ip), vehicle: saline with Tween-80 111 % of control | dose: 1.0 mg/kg/injection, schedule: Q01DX009 (ip), vehicle: saline 98 % of control | dose: 2.0 mg/kg/injection, schedule: Q01DX009 (ip), vehicle: saline with Tween-80 116 % of control | dose: 2.0 mg/kg/injection, schedule: Q01DX009 (ip), vehicle: saline 94 % of control | dose: 2.0 mg/kg/injection, schedule: Q04DX003 (ip), vehicle: saline 105 % of control | dose: 4.0 mg/kg/injection, schedule: Q01DX009 (ip), vehicle: saline with Tween-80 105 % of control | dose: 4.0 mg/kg/injection, schedule: Q04DX003 (ip), vehicle: saline 94 % of control | dose: 8.0 mg/kg/injection, schedule: Q01DX009 (ip), vehicle: saline with Tween-80 90 % of control | dose: 8.0 mg/kg/injection, schedule: Q04DX003 (ip), vehicle: saline 105 % of control

C=CCOCC(O)CN(CC)c1ccccc1 (stereo not given)
inactive: dose: 75.0 mg/kg/injection, schedule: Q04DX003 (ip), vehicle: Klucel (hydroxypropylcellulose) (HPC) 89 % of control | dose: 150.0 mg/kg/injection, schedule: Q04DX003 (ip), vehicle: Klucel (hydroxypropylcellulose) (HPC) 89 % of control | dose: 300.0 mg/kg/injection, schedule: Q04DX003 (ip), vehicle: Klucel (hydroxypropylcellulose) (HPC) 98 % of control

C[N+](C)(C)CCOC(=O)c1ccccc1
inactive: [1] 91 % of control | [2] 93 % of control | [3] 91 % of control

N#CC(=C1C=CC(=NO)C=C1)c1ccc(Cl)cc1
inactive: [4] 88 % of control | [5] 95 % of control | [6] 87 % of control | [7] 86 % of control

C/C=C(/C)N(C(C)=O)N(C(C)=O)c1ccc([N+](=O)[O-])cc1[N+](=O)[O-]
inactive: [10] 100 % of control | [11] 89 % of control | dose: 400.0 mg/kg/injection, schedule: Q01DX009 (ip), vehicle: Klucel (hydroxypropylcellulose) (HPC) 89 % of control

CCOC(=N)c1cn(C2OC(CO)C(O)C2O)c2ncnc(N)c12 (stereo not given)
inactive: [12] 100 % of control | [13] 105 % of control

COc1ccc(C(=O)C(C)C(O)C(=O)O)c(O)c1C (stereo not given)
inactive: dose: 100.0 mg/kg/injection, schedule: Q01DX009 (ip), vehicle: other 93 % of control

COc1ccccc1NC(N)=S
inactive: [8] 110 % of control | [9] 103 % of control | [10] 100 % of control

CCCS(=O)[O-].CCCS(=O)[O-].[Zn+2]
inactive: dose: 0.05 mg/kg/injection, schedule: Q01DX009 (ip), vehicle: saline 106 % of control | dose: 0.1 mg/kg/injection, schedule: Q01DX009 (ip), vehicle: saline 91 % of control | dose: 0.2 mg/kg/injection, schedule: Q01DX009 (ip), vehicle: saline 103 % of control | dose: 0.4 mg/kg/injection, schedule: Q01DX009 (ip), vehicle: saline 101 % of control | dose: 0.8 mg/kg/injection, schedule: Q01DX009 (ip), vehicle: saline 96 % of control | dose: 1.6 mg/kg/injection, schedule: Q01DX009 (ip), vehicle: saline 100 % of control | dose: 3.2 mg/kg/injection, schedule: Q01DX009 (ip), vehicle: saline 95 % of control | dose: 6.4 mg/kg/injection, schedule: Q01DX009 (ip), vehicle: saline 103 % of control | dose: 12.8 mg/kg/injection, schedule: Q01DX009 (ip), vehicle: saline 101 % of control

C[C@]1(O)CC[C@H]2[C@@H]3CCC4=CC(=O)CC[C@]4(C)[C@@]3(F)[C@@H](O)C[C@@]21C
inactive: dose: 12.5 mg/kg/injection, schedule: Q02DX009 (ip), vehicle: Klucel (hydroxypropylcellulose) (HPC) 92 % of control | dose: 25.0 mg/kg/injection, schedule: Q02DX009 (ip), vehicle: Klucel (hydroxypropylcellulose) (HPC) 100 % of control | dose: 50.0 mg/kg/injection, schedule: Q02DX009 (ip), vehicle: Klucel (hydroxypropylcellulose) (HPC) 120 % of control | dose: 100.0 mg/kg/injection, schedule: Q02DX009 (ip), vehicle: Klucel (hydroxypropylcellulose) (HPC) 107 % of control | dose: 200.0 mg/kg/injection, schedule: Q02DX009 (ip), vehicle: Klucel (hydroxypropylcellulose) (HPC) 99 % of control | dose: 400.0 mg/kg/injection, schedule: Q02DX009 (ip), vehicle: Klucel (hydroxypropylcellulose) (HPC) 92 % of control

— PubChem BioAssay AID192 (DTP/NCI, 2004)
